Experimental data reported in patent US20070128217A1 (priority 2003, published 2007).

Tests used:
[1] = test system: antibodies in sera from SARS patients (sera 1a, 1b, 2, 6, 37, 62, London, SARS-yellow, SARS-green); format: binding, human
[2] = test system: control sera (pooled serum of ten healthy LUMC hospital workers; commercial negative donor pooled serum from the Dutch bloodbank); format: binding, human
[3] = test system: rabbit serum obtained by immunizing a rabbit with the SARS-CoV strain Frankfurt 1; format: binding; parameters: Binding of a rabbit serum to linear peptides / Binding of a rabbit serum to looped peptides / Rabbit serum linear peptides / Rabbit serum looped peptides / Binding of a rabbit serum to linear peptides of protein N of SARS-CoV Urbani (Rabbit serum linear peptides) / Binding of a rabbit serum to looped/cyclic peptides of protein N of SARS-CoV Urbani (Rabbit serum looped peptides): unit not given here

| Sequence | Binding of serum 1a to linear peptides of protein E of SARS-CoV Urbani [1] | Binding of serum 1a to looped/cyclic peptides of protein E of SARS-CoV Urbani [1] | Binding of serum 1b to linear peptides of protein E of SARS-CoV Urbani [1] | Binding of serum 1b to looped/cyclic peptides of protein E of SARS-CoV Urbani [1] | Binding of serum 2 to linear peptides of protein E of SARS-CoV Urbani [1] | Binding of serum 2 to looped/cyclic peptides of protein E of SARS-CoV Urbani [1] | Binding of serum 6 to linear peptides of protein E of SARS-CoV Urbani [1] | Binding of serum 6 to looped/cyclic peptides of protein E of SARS-CoV Urbani [1] | Binding of serum 37 to linear peptides of protein E of SARS-CoV Urbani [1] | Binding of serum 37 to looped/cyclic peptides of protein E of SARS-CoV Urbani [1] | Binding of serum 62 to linear peptides of protein E of SARS-CoV Urbani [1] | Binding of serum 62 to looped/cyclic peptides of protein E of SARS-CoV Urbani [1] | Binding of serum London to linear peptides of protein E of SARS-CoV Urbani [1] | Binding of serum London to looped/cyclic peptides of protein E of SARS-CoV Urbani [1] | Binding of serum SARS-green to linear peptides of protein E of SARS-CoV Urbani [1] | Binding of serum SARS-green to looped/cyclic peptides of protein E of SARS-CoV Urbani [1] | Binding of serum SARS-yellow to linear peptides of protein E of SARS-CoV Urbani [1] | Binding of serum SARS-yellow to looped/cyclic peptides of protein E of SARS-CoV Urbani [1] | Binding of Control Serum Blood-Bank to Looped peptides [2] | Binding of Control serum Blood-bank to linear peptides [2] | also measured |
| --- | --- | --- | --- | --- | --- | --- | --- | --- | --- | --- | --- | --- | --- | --- | --- | --- | --- | --- | --- | --- | --- |
| NSVLLFLAFVVFLLV | 0.8 | 0.6 | 0.6 | 0.5 | 0.6 | 0.6 | 0.9 | 0.4 | 0.7 | 0.7 | 0.7 | 0.7 | 0.6 | 0.3 | 0.3 | 0.4 | 0.2 | 0.7 | 0.6 | 0.7 | Binding of Control serum LUMC to linear peptides [2]: 0.7; Binding of Control serum LUMC to looped peptides [2]: 0.8; Binding of a rabbit serum to linear peptides [3]: 0.6; Binding of a rabbit serum to looped peptides [3]: 0.6 |
| RLCAYCCNIVNVSLV | 0.6 | 0.7 | 0.5 | 0.7 | 0.6 | 0.7 | 0.4 | 0.7 | 0.5 | 0.6 | 0.4 | 0.8 | 0.5 | 0.5 | 0.5 | 0.8 | 0.2 | 0.6 | 0.7 | 0.8 | Binding of Control serum LUMC to linear peptides [2]: 0.6; Binding of Control serum LUMC to looped peptides [2]: 0.8; Binding of a rabbit serum to linear peptides [3]: 0.4; Binding of a rabbit serum to looped peptides [3]: 0.2 |
